{
  "source": "paper PMC12794274",
  "about": "“Therapeutic potential of Sheng-Xian-Tang in doxorubicin-induced chronic heart failure by regulation of phenylalanine metabolism disruption” (Chinese Medicine, 2026)",
  "key": {"AML12 cells": {"test_system": "AML12 cells", "test": "AML12 cell viability (CCK8)", "format": "cell-based", "experimental": "(§1) Mouse hepatocellular cell lines (AML12), purchased from the Shanghai Cell Bank of Chinese Academy of Sciences (Shanghai, China), were cultured in Dulbecco’s Modified Eagle Medium (DMEM) supplemented with 10% fetal bovine serum (FBS) and 2 mM L-glutamine and 1% pyruvate and maintained at 37 °C in a […], 5% CO2 incubator. Cells were seeded at a density of 5 × 10^5 cells/well in 6-well plates. […] Cells’ survival rate was detected by Cell Counting Kit-8 (CCK8) Reagents (Thermo Scientific, Singapore)."}, "[1]": {"test_system": "DOX-induced chronic heart failure (CHF) rat model", "test": "Echocardiography (LVEF%, LVFS%) in DOX-induced CHF rats", "format": "in vivo", "details": "DOX + ENP 1.8 mg/kg vs DOX group, p < 0.001", "experimental": "Experiment I, 48 rats were randomly divided into six groups: (1) the CON group; (2) the DOX group; (3) the DOX + enalapril (ENP, positive control, 1.8 mg/kg) group; (4) the DOX + SXT at low dose group (4 g/kg); (5) the DOX + SXT at middle dose group (8 g/kg); and […] the DOX + SXT at high dose group (16 g/kg). Except those rats in the CON group, the remaining rats received DOX at a 2.5 mg/kg per injection to a cumulative dose of 15 mg/kg. The dose of SXT for the low-dose group was set at 4 g/kg, based on the minimum human clinical daily dose (48.5 g, Table S2) converted to an equivalent rat dose using body surface area normalization (48.5 g/70 kg × 6.3 ≈ 4.4 g/kg, rounded to 4 g/kg). To evaluate a clear dose–response relationship, the medium and high doses were established at 8 g/kg and 16 g/kg, respectively, corresponding to 2 fold and 4 fold the low dose. This gradient dosing strategy is consistent with the Technical Guidelines for Pharmacodynamic Studies of Traditional Chinese Medicine and the Technical Guidelines for General Pharmacology Studies of Traditional Chinese Medicine and Natural Drugs, and is further supported by our previous study on the effective dose range of SXT in a rat model of doxorubicin-induced chronic heart failure. Heart function was monitored by echocardiography analysis at day 39, and the CHF model was considered to be successfully established when the left ventricular ejection fraction (LVEF%) values were reduced to 50%. Urinary samples were collected at five time points (0, 10, 20, 30, and 39 d), while fecal samples were collected before the rats were euthanized. Subsequently, the rats were anesthetized, and blood samples and heart and liver tissues were collected. All bio-samples were stored at − 80 °C until analysis.\nExperiment II was conducted to specifically confirm the exacerbated cardiac abnormality of phenylalanine in the DOX-induced CHF rats. […] Heart function was detected as in the experiment I.\nEchocardiographic (ECG) measurements were performed using M-mode tracings and continuous Doppler with a Vevo 2100 system (Visual Sonics, Toronto, ON, Canada). Rats were anesthetized with isoflurane prior to imaging. Cardiac function indices including left ventricular ejection fraction (LVEF%) and left ventricular fractional shortening (LVFS%) were measured and recorded."}, "DOX-induced CHF rats": {"test_system": "DOX-induced CHF rats", "test": "Serum biochemical parameters (BNP, CK, LDH, ALT, AST) by ELISA kits", "format": "in vivo, rat", "details": "treated groups vs DOX group, experiment I", "experimental": "Serum biochemical parameters including brain natriuretic peptide (BNP), creatine kinase (CK), lactate dehydrogenase (LDH), alanine aminotransferase (ALT), and aspartate aminotransferase (AST) were measured using commercial ELISA kits (Nanjing Jiancheng Bioengineering Institute, Nanjing, China) according to the manufacturer's instructions. Superoxide dismutase (SOD), and malondialdehyde (MDA) levels in liver and heart tissues were measured using assay kits from […] Biotechnology (Changsha, China). Phenylalanine and tyrosine concentrations in the cell were determined using an ELISA kit from Abmart (Shanghai, China)."}, "Rat body weight": {"test": "Rat body weight", "format": "in vivo", "details": "CHF rats, treatment vs DOX group, experiment I", "experimental": "Experiment I, 48 rats were randomly divided into six groups: (1) the CON group; (2) the DOX group; (3) the DOX + enalapril (ENP, positive control, 1.8 mg/kg) group; (4) the DOX + SXT at low dose group (4 g/kg); (5) the DOX + SXT at middle dose group (8 g/kg); and […] the DOX + SXT at high dose group (16 g/kg). Except those rats in the CON group, the remaining rats received DOX at a 2.5 mg/kg per injection to a cumulative dose of 15 mg/kg. The dose of SXT for the low-dose group was set at 4 g/kg, based on the minimum human clinical daily dose (48.5 g, Table S2) converted to an equivalent rat dose using body surface area normalization (48.5 g/70 kg × 6.3 ≈ 4.4 g/kg, rounded to 4 g/kg). To evaluate a clear dose–response relationship, the medium and high doses were established at 8 g/kg and 16 g/kg, respectively, corresponding to 2 fold and 4 fold the low dose. […] Heart function was monitored by echocardiography analysis at day 39, and the CHF model was considered to be successfully established when the left ventricular ejection fraction (LVEF%) values were reduced to 50%. […]"}, "[2]": {"test_system": "cardiac tissues of DOX-induced CHF rats", "test": "Heart histopathology (H&E, Masson) and TUNEL apoptosis detection", "format": "in vivo, rat", "details": "treated groups vs DOX group", "experimental": "Cardiac tissues were fixed in 4% paraformaldehyde, embedded in paraffin, and sectioned at 4–5 μm thickness. Hematoxylin and eosin (H&E) staining was performed to assess histopathological changes, while Masson’s trichrome staining was used to evaluate cardiac fibrosis. Apoptosis in cardiac tissues was detected using a TUNEL assay kit (C1088, Beyotime, Shanghai, China)."}, "[3]": {"test_system": "PAH activity in AML12 cells", "format": "cell-based", "details": "BH4 10 μM; timosaponin B-II, neomangiferin, anemarrhenasaponin I 5, 10, 20 μM; timosaponin AIII 0.1, 0.2, 0.5 μM", "experimental": "Serum biochemical parameters including brain natriuretic peptide (BNP), creatine kinase (CK), lactate dehydrogenase (LDH), alanine aminotransferase (ALT), and aspartate aminotransferase (AST) were measured using commercial ELISA kits (Nanjing Jiancheng Bioengineering Institute, Nanjing, China) according to the manufacturer’s instructions. Superoxide dismutase (SOD), and malondialdehyde (MDA) levels in liver and heart tissues were measured using assay kits from Aifang Biotechnology (Changsha, China). Phenylalanine and tyrosine concentrations in the cell were determined using an ELISA kit from Abmart (Shanghai, China).\nas §1"}, "[4]": {"biological_target": "Phenylalanine hydroxylase (PAH) protein (Homo sapiens, UniProt P00439)", "sequence (P00439 whole entry)": "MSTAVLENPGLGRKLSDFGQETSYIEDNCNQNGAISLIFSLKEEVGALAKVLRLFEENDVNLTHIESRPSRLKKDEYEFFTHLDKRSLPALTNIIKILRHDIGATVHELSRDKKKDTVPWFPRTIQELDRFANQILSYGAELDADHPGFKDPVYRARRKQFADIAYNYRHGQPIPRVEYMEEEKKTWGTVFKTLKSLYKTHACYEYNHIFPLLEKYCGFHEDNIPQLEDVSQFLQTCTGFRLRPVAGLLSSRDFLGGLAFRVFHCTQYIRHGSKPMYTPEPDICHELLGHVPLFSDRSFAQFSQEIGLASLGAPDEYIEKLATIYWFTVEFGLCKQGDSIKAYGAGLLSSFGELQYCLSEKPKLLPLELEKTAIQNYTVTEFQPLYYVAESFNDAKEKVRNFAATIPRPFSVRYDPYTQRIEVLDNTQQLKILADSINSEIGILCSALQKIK", "test": "Surface Plasmon Resonance (SPR) analysis, Biacore T200", "format": "binding", "details": "PAH immobilized on CM5 chip, read-out: dissociation constant (Kd)", "experimental": "SPR assays were conducted using a Biacore T200 system (GE Healthcare Life Sciences, USA). Phenylalanine hydroxylase (PAH) protein was immobilized on CM5 sensor chips using an amine-coupling kit (BR100050, GE Healthcare) following standard procedures. […] Samples were injected over reference and PAH-immobilized flow cells at a flow rate of 30 μL/min, with 120 s contact time and 120 s dissociation time. Kinetic parameters were calculated using Biacore T200 evaluation software."}},
  "data": [
    {"smiles": "O=c1c(-c2ccc(O)cc2)coc2cc(O)ccc12", "note": "[Daidzein]", "values": [
      {"measurement": "non-cytoxic concentration", "setting": "AML12 cells; mouse", "result": "5 to 20", "unit": "µM"}
    ]},
    {"smiles": "CCOC(=O)[C@H](CCc1ccccc1)N[C@@H](C)C(=O)N1CCC[C@H]1C(=O)O", "note": "[ENP, Enalapril]", "values": [
      {"measurement": "LVEF and LVFS", "setting": "[1]", "result": "significantly higher"},
      {"measurement": "serum ALT and AST levels", "setting": "DOX-induced CHF rats", "result": "markedly reduced"},
      {"measurement": "body weight", "setting": "Rat body weight", "result": "partially restored"},
      {"measurement": "TUNEL-positive cardiomyocytes", "setting": "[2]", "result": "reduction"}
    ]},
    {"smiles": "COc1ccc(-c2coc3cc(O)ccc3c2=O)cc1", "note": "[Formononetin]", "values": [
      {"measurement": "non-cytoxic concentration", "setting": "AML12 cells; AML12 cells", "result": "5 to 20", "unit": "µM"}
    ]},
    {"smiles": "COc1ccc(/C=C/C(=O)O)cc1O", "note": "[Isoferulic acid]", "values": [
      {"measurement": "non-cytoxic concentration", "setting": "AML12 cells; AML12 cells", "result": "5 to 20", "unit": "µM"}
    ]},
    {"smiles": "COc1ccc(-c2coc3cc(O[C@@H]4O[C@H](CO)[C@@H](O)[C@H](O)[C@H]4O)ccc3c2=O)cc1", "note": "[Ononin]", "values": [
      {"measurement": "non-cytoxic concentration", "setting": "AML12 cells; AML12 cells", "result": "5 to 20", "unit": "µM"}
    ]},
    {"smiles": "C[C@H]1CC[C@@]2(OC1)O[C@H]1C[C@H]3[C@@H]4CC[C@@H]5C[C@@H](O[C@@H]6O[C@H](CO)[C@H](O)[C@H](O)[C@H]6O[C@@H]6O[C@H](CO)[C@@H](O)[C@H](O)[C@H]6O)CC[C@]5(C)[C@H]4CC[C@]3(C)[C@H]1[C@@H]2C", "note": "[Timosaponin A-III]", "values": [
      {"measurement": "non-cytoxic concentration", "setting": "AML12 cells; mouse", "result": "0.1 to 0.5", "unit": "µM"},
      {"measurement": "phenylalanine levels in AML12 cells increased by DOX", "setting": "[3]", "result": "significantly reduce"},
      {"measurement": "Kd", "setting": "[4]", "result": "< 10", "unit": "µM"}
    ]},
    {"smiles": "C[C@H]1CC[C@@]2(OC1)O[C@H]1C[C@H]3[C@@H]4CC[C@@H]5C[C@@H](O[C@@H]6O[C@H](CO)[C@H](O)[C@H](O)[C@H]6O[C@@H]6O[C@H](CO)[C@@H](O)[C@H](O)[C@H]6O)[C@@H](O)C[C@]5(C)[C@H]4CC[C@]3(C)[C@H]1[C@@H]2C", "note": "[Timosaponin A-II]", "values": [
      {"measurement": "non-cytoxic concentration", "setting": "AML12 cells; AML12 cells", "result": "0.1 to 0.5", "unit": "µM"}
    ]},
    {"smiles": "C[C@@H](CC[C@@]1(O)O[C@H]2C[C@H]3[C@@H]4CC[C@@H]5C[C@@H](O[C@@H]6O[C@H](CO)[C@H](O)[C@H](O)[C@H]6O[C@@H]6O[C@H](CO)[C@@H](O)[C@H](O)[C@H]6O)CC[C@]5(C)[C@H]4CC[C@]3(C)[C@H]2[C@@H]1C)CO[C@@H]1O[C@H](CO)[C@@H](O)[C@H](O)[C@H]1O", "note": "[Timosaponin B-II]", "values": [
      {"measurement": "non-cytoxic concentration", "setting": "AML12 cells; mouse", "result": "5 to 20", "unit": "µM"},
      {"measurement": "phenylalanine levels in AML12 cells increased by DOX", "setting": "[3]", "result": "significantly reduce"},
      {"measurement": "Kd", "setting": "[4]", "result": "< 10", "unit": "µM"}
    ]}
  ]
}
